{
  "source": "patent US20100267561A1",
  "about": "“HERBICIDAL PYRIDAZINONE DERIVATIVES” (priority 2007, published 2010)",
  "test_in_all_cases": "Test B pre-/postemergence plant response",
  "type_in_all_cases": "in vivo",
  "conditions_in_all_cases": "Preemergence",
  "key": {"[1]": {"test_system": "Italian ryegrass (Lolium multiflorum)", "how_it_was_run": "(§1)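 Preemergence and postemergence (plants 2-18 cm, 1- to 4-leaf stage) applications used test chemicals in a non-phytotoxic solvent with surfactant. Plants were held in a greenhouse 13 to 15 days, then rated visually against controls on a 0-100 scale (0 no effect, 100 complete control).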"}, "[2]": {"test_system": "Russian thistle (Salsola iberica)", "how_it_was_run": "as §1"}, "[3]": {"test_system": "common (oilseed) sunflower (Helianthus annuus)", "how_it_was_run": "as §1"}, "[4]": {"test_system": "common ragweed (Ambrosia elation)", "how_it_was_run": "as §1"}, "corn (Zea mays)": {"test_system": "corn (Zea mays)", "how_it_was_run": "as §1"}, "[5]": {"test_system": "eastern black (E.B.) nightshade (Solanum ptycanthum)", "how_it_was_run": "as §1"}, "[6]": {"test_system": "giant foxtail (Setaria faberii)", "how_it_was_run": "as §1"}, "[7]": {"test_system": "goosegrass (Eleusine indica)", "how_it_was_run": "as §1"}, "[8]": {"test_system": "green foxtail (Setaria viridis)", "how_it_was_run": "as §1"}, "[9]": {"test_system": "johnsongrass (Sorghum halepense)", "how_it_was_run": "as §1"}, "[10]": {"test_system": "pigweed (Amaranthus retroflexus)", "how_it_was_run": "as §1"}, "[11]": {"test_system": "surinam grass (Brachiaria decumbens)", "how_it_was_run": "as §1"}, "[12]": {"test_system": "yellow nutsedge (Cyperus esculentus)", "how_it_was_run": "as §1"}, "[13]": {"conditions": "16 g ai/ha, scale 0 to 100 (0 no effect, 100 complete control)"}, "[14]": {"conditions": "31 g ai/ha, scale 0 to 100 (0 no effect, 100 complete control)"}, "[15]": {"conditions": "31 g ai/ha, 0 to 100 scale, 0 no effect, 100 complete control"}},
  "data": [
    {"molecule": "Cc1ccc(-c2ccc(Cl)cc2)cc1-c1c(O)cnn(C)c1=O", "note": "[Compound 46]", "values": [
      {"measurement": "Plant response rating, Ryegrass, Italian", "setting": "[1]; [13]", "result": 10},
      {"measurement": "Plant response rating, Ryegrass, Italian", "setting": "[1]; [14]", "result": 40},
      {"measurement": "Plant response rating, Ryegrass, Italian", "setting": "[1]; 62 g ai/ha, scale 0 to 100", "result": 100},
      {"measurement": "Ryegrass, Italian plant response rating", "setting": "[1]; 8 g ai/ha, scale 0 to 100", "result": 0},
      {"measurement": "Plant response rating, Russian Thistle", "setting": "[2]; [13]", "result": 0},
      {"measurement": "Plant response rating, Russian Thistle", "setting": "[2]; [14]", "result": 0},
      {"measurement": "Plant response rating, Russian Thistle", "setting": "[2]; 62 g ai/ha, scale 0 to 100", "result": 0},
      {"measurement": "Russian Thistle plant response rating", "setting": "[2]; 8 g ai/ha, scale 0 to 100", "result": 0},
      {"measurement": "Plant response rating, Sunflower", "setting": "[3]; [13]", "result": 0},
      {"measurement": "Plant response rating, Sunflower", "setting": "[3]; [14]", "result": 0},
      {"measurement": "Plant response rating, Sunflower", "setting": "[3]; 62 g ai/ha, scale 0 to 100", "result": 0},
      {"measurement": "Sunflower plant response rating", "setting": "[3]; 8 g ai/ha, scale 0 to 100", "result": 0},
      {"measurement": "Plant response rating, Ragweed", "setting": "[4]; [13]", "result": 0},
      {"measurement": "Plant response rating, Ragweed", "setting": "[4]; [14]", "result": 0},
      {"measurement": "Plant response rating, Ragweed", "setting": "[4]; 62 g ai/ha, scale 0 to 100", "result": 0},
      {"measurement": "Ragweed plant response rating", "setting": "[4]; 8 g ai/ha, scale 0 to 100", "result": 0},
      {"measurement": "Plant response rating, Corn", "setting": "corn (Zea mays); [13]", "result": 0},
      {"measurement": "Plant response rating, Corn", "setting": "corn (Zea mays); [15]", "result": 0},
      {"measurement": "Plant response rating, Corn", "setting": "corn (Zea mays); 62 g ai/ha, scale 0 to 100", "result": 0},
      {"measurement": "Corn plant response rating", "setting": "corn (Zea mays); 8 g ai/ha, scale 0 to 100", "result": 0},
      {"measurement": "Plant response rating, Nightshade, E. B.", "setting": "[5]; [13]", "result": 0},
      {"measurement": "Plant response rating, Nightshade, E. B.", "setting": "[5]; [14]", "result": 20},
      {"measurement": "Plant response rating, Nightshade, E. B.", "setting": "[5]; 62 g ai/ha, scale 0 to 100", "result": 100},
      {"measurement": "Nightshade, E. B. plant response rating", "setting": "[5]; 8 g ai/ha, scale 0 to 100", "result": 0},
      {"measurement": "Plant response rating, Foxtail, Giant", "setting": "[6]; [13]", "result": 15},
      {"measurement": "Plant response rating, Foxtail, Giant", "setting": "[6]; [15]", "result": 95},
      {"measurement": "Plant response rating, Foxtail, Giant", "setting": "[6]; 62 g ai/ha, scale 0 to 100", "result": 100},
      {"measurement": "Foxtail, Giant plant response rating", "setting": "[6]; 8 g ai/ha, scale 0 to 100", "result": 0},
      {"measurement": "Plant response rating, Goosegrass", "setting": "[7]; [13]", "result": 100},
      {"measurement": "Plant response rating, Goosegrass", "setting": "[7]; [15]", "result": 100},
      {"measurement": "Plant response rating, Goosegrass", "setting": "[7]; 62 g ai/ha, scale 0 to 100", "result": 100},
      {"measurement": "Goosegrass plant response rating", "setting": "[7]; 8 g ai/ha, scale 0 to 100", "result": 0},
      {"measurement": "Plant response rating, Foxtail, Green", "setting": "[8]; [13]", "result": 10},
      {"measurement": "Plant response rating, Foxtail, Green", "setting": "[8]; [15]", "result": 80},
      {"measurement": "Plant response rating, Foxtail, Green", "setting": "[8]; 62 g ai/ha, scale 0 to 100", "result": 100},
      {"measurement": "Foxtail, Green plant response rating", "setting": "[8]; 8 g ai/ha, scale 0 to 100", "result": 0},
      {"measurement": "Plant response rating, Johnsongrass", "setting": "[9]; [13]", "result": 55},
      {"measurement": "Plant response rating, Johnsongrass", "setting": "[9]; [15]", "result": 85},
      {"measurement": "Plant response rating, Johnsongrass", "setting": "[9]; 62 g ai/ha, scale 0 to 100", "result": 90},
      {"measurement": "Plant response rating, Pigweed", "setting": "[10]; [13]", "result": 0},
      {"measurement": "Plant response rating, Pigweed", "setting": "[10]; [14]", "result": 60},
      {"measurement": "Plant response rating, Pigweed", "setting": "[10]; 62 g ai/ha, scale 0 to 100", "result": 100},
      {"measurement": "Pigweed plant response rating", "setting": "[10]; 8 g ai/ha, scale 0 to 100", "result": 0},
      {"measurement": "Plant response rating, Surinam Grass", "setting": "[11]; [13]", "result": 0},
      {"measurement": "Plant response rating, Surinam Grass", "setting": "[11]; [14]", "result": 0},
      {"measurement": "Plant response rating, Surinam Grass", "setting": "[11]; 62 g ai/ha, 0 to 100 scale, 0 no effect, 100 complete control", "result": 0},
      {"measurement": "Surinam Grass plant response rating", "setting": "[11]; 8 g ai/ha, scale 0 to 100", "result": 0},
      {"measurement": "Plant response rating, Nutsedge, Yellow", "setting": "[12]; [13]", "result": 0},
      {"measurement": "Plant response rating, Nutsedge, Yellow", "setting": "[12]; [14]", "result": 0},
      {"measurement": "Plant response rating, Nutsedge, Yellow", "setting": "[12]; 62 g ai/ha, scale 0 to 100", "result": 0},
      {"measurement": "Nutsedge, Yellow plant response rating", "setting": "[12]; 8 g ai/ha, scale 0 to 100", "result": 0}
    ]}
  ]
}
